Results on 37 compounds are retold here after US10961202B2, “Bis-benzimidazole compounds and methods of using the same” (THE SCRIPPS RESEARCH INSTITUTE, priority 2017, dated 2021).

Where only a bound is given, the exact number is not on record here.

For the first test, the system named is r(CUG)12-MBNL1 complex. Briefly: Inhibition of the r(CUG)12-MBNL1 complex measured by TR-FRET. The format is biochemical. As to conditions: Table L; 80 nM RNA, 60 nM MBNL1-His6. (In general: TR-FRET usually uses a lanthanide donor and a delayed reading to cut background.)
For orientation: IC50 means the concentration that gives 50% inhibition. Low values mean higher potency, high ones lower potency. In the case of `Oc1ccc(-c2nc3cc(-c4ccc5[nH]c(-c6ccc(O)cc6)nc5c4)ccc3[nH]2)cc1` [Compound 105], the IC50 was above 200 µM. The same measure, in the same setting: the result for `c1cnc(Nc2ccc3nc(-c4ccc(-c5nc6ccc(Nc7ncccn7)cc6[nH]5)cc4)[nH]c3c2)nc1` [Compound 8, 2,2′-(1,4-phenylene)bis(N-(pyrimidin-2-yl)-1H-benzo[d]imidazol-5-amine)] reads 150 µM; that for `N=C(N)c1ccc(-c2nc3cc(-c4ccc5[nH]c(-c6ccc(C(=N)N)cc6)nc5c4)ccc3[nH]2)cc1` [Compound 99], 15.2 µM; that for `c1cc(-c2nc3cc(-c4ccc5[nH]c(-c6ccc(CN7CCCC7)cc6)nc5c4)ccc3[nH]2)ccc1CN1CCCC1` [Compound 127, 2,2′-bis(4-(pyrrolidin-1-ylmethyl)phenyl)-1H,1′H-5,5′-bibenzo[d]imidazole], 27.8 µM.

`COCCNC(=O)c1ccc2nc(-c3ccc(-c4nc5ccc(C(=O)NCCOC)cc5[nH]4)cc3)[nH]c2c1` [Compound 53, 2,2′-(1,4-phenylene)bis(N-(2-methoxyethyl)-1H-benzo[d]imidazole-6-carboxamide)]: the IC50 is above 200 µM.

`CN(C)CCNC(=O)c1ccc2nc(-c3ccc(-c4nc5ccc(C(=O)NCCN(C)CCCCc6cn(CCCN)nn6)cc5[nH]4)cc3)[nH]c2c1` [Compound 74] registered an IC50 of 6.7 µM. In turn, `Brc1ccc(-c2nc3cc(-c4ccc5[nH]c(-c6ccc(Br)cc6)nc5c4)ccc3[nH]2)cc1` [Compound 104] yielded an IC50 above 200 µM. For `CN(C)CCNC(=O)c1ccc2nc(-c3ccc(-c4nc5ccc(C(=O)NCCN(C)CCN)cc5[nH]4)cc3)[nH]c2c1` [Compound 37, N-(2-((2-aminoethyl)(methyl)amino)ethyl)-2-(4-(6-((2-(dimethylamino)ethyl)carbamoyl)-1H-benzo[d]imidazol-2-yl)phenyl)-1H-benzo[d]imidazole-6-carboxamide], half-maximal inhibition (IC50) required 7.8 µM. `Nc1ccc2nc(-c3ccc(-c4nc5ccc(N)cc5[nH]4)cc3)[nH]c2c1` [Compound 2, 2,2′-(1,4-phenylene)bis(1H-benzo[d]imidazol-6-amine)] gave an IC50 of 197 µM. For the compound `c1cn(-c2ccc(-c3nc4cc(-c5ccc6[nH]c(-c7ccc(-n8ccnc8)cc7)nc6c5)ccc4[nH]3)cc2)cn1` [Compound 107], the half-maximal inhibitory concentration (IC50) was above 200 µM. Regarding `Nc1ccc2nc(-c3ccc(-c4nc5ccc(Nc6ccccn6)cc5[nH]4)cc3)[nH]c2c1` [Compound 21, 2-(4-(5-amino-1H-benzo[d]imidazol-2-yl)phenyl)-N-(pyridin-2-yl)-1H-benzo[d]imidazol-5-amine], half-maximal inhibition (IC50) was put at 150 µM. With `Cn1c(-c2ccc(-c3nc4ccc(Br)cc4n3C)cc2)nc2ccc(Br)cc21` [Compound 90, 1,4-bis(6-bromo-1-methyl-1H-benzo[d]imidazol-2-yl)benzene], the IC50 is above 200 µM. The compound `CCOC(CNC(=N)Nc1ccc2nc(-c3ccc(-c4nc5ccc(N)cc5[nH]4)cc3)[nH]c2c1)OCC` [Compound 17, 1-(2-(4-(5-amino-1H-benzo[d]imidazol-2-yl)phenyl)-1H-benzo[d]imidazol-5-yl)-3-(2,2-diethoxyethyl)guanidine] had an IC50 of 37 µM.

`Nc1ccc2[nH]c(-c3ccc(-c4nc5cc(NC6=NCCN6)ccc5[nH]4)cc3)nc2c1` [Compound 24, 2-(4-(5-amino-1H-benzo[d]imidazol-2-yl)phenyl)-N-(4,5-dihydro-1H-imidazol-2-yl)-1H-benzo[d]imidazol-5-amine]: it took 35 µM to reach half-maximal inhibition (IC50).

The same test, now with this note: Table M; 80 nM RNA, 60 nM MBNL1-His6.
Take `O=C(N[C@H]1CN2CCC1CC2)c1ccc(-c2nc3cc(-c4ccc5[nH]c(-c6ccc(C(=O)N[C@H]7CN8CCC7CC8)cc6)nc5c4)ccc3[nH]2)cc1` [Compound 342]: the IC50 was 4.38 µM. Turning to `CN(C)CCNC(=O)c1ccc(-c2nc3cc(-c4ccc5[nH]c(-c6ccc(C(=O)NC7CCCCC7NC(=O)c7ccc(-c8nc9cc(-c%10ccc%11[nH]c(-c%12ccc(C(=O)NCCN(C)C)cc%12)nc%11c%10)ccc9[nH]8)cc7)cc6)nc5c4)ccc3[nH]2)cc1` (stereo not shown) [Compound 410], the IC50 worked out at 34.4 µM. On the same count and under the same terms, with `N#Cc1ccc(Oc2ccc3nc(-c4ccc(-c5nc6ccc(Oc7ccc(C#N)cc7)cc6[nH]5)cc4)[nH]c3c2)cc1` [Compound 229, 4,4′-((2,2′-(1,4-phenylene)bis(1H-benzo[d]imidazole-6,2-diyl))bis(oxy))dibenzonitrile] the figure was above 200 µM. The compound `CN(C)CCNC(=O)c1ccc(-c2nc3cc(-c4ccc5[nH]c(-c6ccc(C(=O)NCCOCCOCCN=[N+]=[N-])cc6)nc5c4)ccc3[nH]2)cc1` [Compound 398] displayed an IC50 of 14.7 µM.

Turning to `CN(C)CCCOc1ccc2nc(-c3ccc(-c4nc5ccc(C(=O)NCCN6CCCC6)cc5[nH]4)cc3)[nH]c2c1` [Compound 232, 2-(4-(6-(3-(dimethylamino)propoxy)-1H-benzo[d]imidazol-2-yl)phenyl)-N-(2-(pyrrolidin-1-yl)ethyl)-1H-benzo[d]imidazole-6-carboxamide], the IC50 was 25 µM. `CN(C)CCNC(=O)c1ccc(-c2nc3ccc(-c4ccc5nc(-c6ccc(C(=O)NCc7cn(CCCNCC(=O)N8CCC[C@H]8C(=O)N8CCC[C@H]8C(=O)N8CCC[C@H]8C(=O)N8CCC[C@H]8C(=O)N(CCCn8cc(CNC(=O)c9ccc(-c%10nc%11ccc(-c%12ccc%13nc(-c%14ccc(C(=O)NCCN(C)C)cc%14)[nH]c%13c%12)cc%11[nH]%10)cc9)nn8)CC(N)=O)nn7)cc6)[nH]c5c4)cc3[nH]2)cc1` [Compound 434, (S)-N-(2-amino-2-oxoethyl)-N-(3-(4-((4-(2′-(4-((2-(dimethylamino)ethyl)carbamoyl)phenyl)-3H,3′H-[5,5′-bibenzo[d]imidazol]-2-yl)benzamido)methyl)-1H-1,2,3-triazol-1-yl)propyl)-1-((3-(4-((4-(2′-(4-((2-(dimethylamino)ethyl)carbamoyl)phenyl)-3H,3′H-[5,5′-bibenzo[d]imidazol]-2-yl)benzamido)methyl)-1H-1,2,3-triazol-1-yl)propyl)glycyl-L-prolyl-L-prolyl-L-prolyl)pyrrolidine-2-carboxamide] gave an IC50 of 10.5 µM.

On to `CN(C)CCN(C)CCOc1ccc2nc(-c3ccc(-c4nc5ccc(OCCN(C)CCN(C)C)cc5[nH]4)cc3)[nH]c2c1` [Compound 211], for which the IC50 stood at 112 µM. As to `C[C@@H](CN(C)C)NC(=O)c1ccc(-c2nc3cc(-c4ccc5[nH]c(-c6ccc(C(=O)N[C@@H](C)CN(C)C)cc6)nc5c4)ccc3[nH]2)cc1` [Compound 389], inhibition was half-maximal at 34.2 µM (IC50). The compound `C[C@@H](CNC(=O)c1ccc(-c2nc3ccc(-c4ccc5nc(-c6ccc(C(=O)NCCN(C)C)cc6)[nH]c5c4)cc3[nH]2)cc1)NC(=O)c1ccc(-c2nc3ccc(-c4ccc5nc(-c6ccc(C(=O)NCCN(C)C)cc6)[nH]c5c4)cc3[nH]2)cc1` [Compound 442] displayed an IC50 of 6.7 µM.

Compound `CN(C)CC(CN(C)C)Oc1ccc(-c2nc3cc(-c4ccc5[nH]c(-c6ccc(O)cc6)nc5c4)ccc3[nH]2)cc1` [Compound 370] showed an IC50 of 82.3 µM. Compound `CN(C)CCCSc1ccc(-c2nc3cc(-c4ccc5[nH]c(-c6ccc(C(=O)NCCN(C)C)cc6)nc5c4)ccc3[nH]2)cc1` [Compound 387] came in with an IC50 of 8.86 µM.

`C[C@@H](C(=O)N(C)[C@@H](C)C(=O)N(C)[C@@H](C)C(=O)N(C)[C@@H](C)C(=O)N(CCCCN(C)C(=O)c1ccc(-c2nc3cc(-c4ccc5[nH]c(-c6ccc(C(=O)NCCN(C)C)cc6)nc5c4)ccc3[nH]2)cc1)CC(N)=O)N(C)C(=O)c1ccc(-c2nc3cc(-c4ccc5[nH]c(-c6ccc(C(=O)NCCN(C)C)cc6)nc5c4)ccc3[nH]2)cc1` [Compound 416] returned an IC50 of 39 µM. Turning to `COc1c(-c2nc3ccc(SCCCN(C)C)cc3[nH]2)ccc(-c2nc3ccc(SCCCN(C)C)cc3[nH]2)c1OC` [Compound 300, 3,3′-(((2,3-dimethoxy-1,4-phenylene)bis(1H-benzo[d]imidazole-2,6-diyl))bis(sulfanediyl))bis(N,N-dimethylpropan-1-amine)], the IC50 was above 200 µM. `CCCCOc1cc(-c2nc3cc(OCCCN(C)C)ccc3[nH]2)c(OCCCC)cc1-c1nc2cc(OCCCN(C)C)ccc2[nH]1` [Compound 333]: the midpoint of inhibition, the IC50, lay at 46.9 µM.

In the case of `CN(C)[C@H]1CC[C@H](Oc2ccc3nc(-c4ccc(-c5nc6ccc(O[C@H]7CC[C@H](N(C)C)CC7)cc6[nH]5)cc4)[nH]c3c2)CC1` [Compound 219], the IC50 worked out at 18.1 µM.

The compound `CN(C)CCNC(=O)c1ccc(-c2nc3cc(-c4ccc5[nH]c(-c6ccc(OCCN(C)C)cc6)nc5c4)ccc3[nH]2)cc1` [Compound 382] returned an IC50 of 17.4 µM.

In the case of `C#CCCNC(=O)CCCOc1ccc2[nH]c(-c3ccc(-c4nc5cc(OCCCN(C)C)ccc5[nH]4)cc3)nc2c1` [Compound 321], inhibition was half-maximal at 22.4 µM (IC50). Take `N#Cc1cccc(Oc2ccc3nc(-c4ccc(-c5nc6ccc(Oc7cccc(C#N)c7)cc6[nH]5)cc4)[nH]c3c2)c1` [Compound 230, 3,3′-((2,2′-(1,4-phenylene)bis(1H-benzo[d]imidazole-6,2-diyl))bis(oxy))dibenzonitrile]: the IC50 was above 200 µM. The same measure, in the same setting: with `CN(C)C(C)(C)CCOc1ccc2nc(-c3ccc(-c4nc5ccc(OCCC(C)(C)N(C)C)cc5[nH]4)cc3)[nH]c2c1` [Compound 282, 4,4′-((1,4-phenylenebis(1H-benzo[d]imidazole-2,6-diyl))bis(oxy))bis(N,N,2-trimethylbutan-2-amine)] the figure was 179 µM; with `COc1ccc2nc(-c3ccc(-c4nc5ccc(OC)cc5[nH]4)cc3)[nH]c2c1` [Compound 189, 1,4-Bis(6-methoxy-1H-benzo[d]imidazol-2-yl)benzene], above 200 µM. `FC(F)(F)CCCOc1ccc2nc(-c3ccc(-c4nc5ccc(OCCCC(F)(F)F)cc5[nH]4)cc3)[nH]c2c1` [Compound 281] registered an IC50 above 200 µM. Same read-out and setting: with `CN(C)Cc1cccc(COc2ccc3nc(-c4ccc(-c5nc6ccc(OCc7cccc(CN(C)C)c7)cc6[nH]5)cc4)[nH]c3c2)c1` [Compound 213, 1,1′-((((1,4-phenylenebis(1H-benzo[d]imidazole-2,6-diyl))bis(oxy))bis(methylene))bis(3,1-phenylene))bis(N,N-dimethylmethanamine)] the figure was 22.8 µM; with `CN(C)CCCOc1ccc2c(c1)nc(-c1ccc(-c3nc4cc(OCCCN(C)C)ccc4n3C)cc1)n2C` [Compound 309], above 200 µM.
